Structures can show the parent of a compound that is named as a salt. Where two headings read alike, the source gives them in different places.
Key:
[1] = biological target: T1, acetylcholinesterase (AChE) (Rattus norvegicus, UniProt P37136); assay: biochemical; set-up: species or system male Wistar rat
T1 construct: An enzyme solution was a homogenized solution of forebrain from male Wistar rat; from tissue; host or cells: forebrain of male Wistar rat (homogenate)
T1 sequence (P37136 32-614): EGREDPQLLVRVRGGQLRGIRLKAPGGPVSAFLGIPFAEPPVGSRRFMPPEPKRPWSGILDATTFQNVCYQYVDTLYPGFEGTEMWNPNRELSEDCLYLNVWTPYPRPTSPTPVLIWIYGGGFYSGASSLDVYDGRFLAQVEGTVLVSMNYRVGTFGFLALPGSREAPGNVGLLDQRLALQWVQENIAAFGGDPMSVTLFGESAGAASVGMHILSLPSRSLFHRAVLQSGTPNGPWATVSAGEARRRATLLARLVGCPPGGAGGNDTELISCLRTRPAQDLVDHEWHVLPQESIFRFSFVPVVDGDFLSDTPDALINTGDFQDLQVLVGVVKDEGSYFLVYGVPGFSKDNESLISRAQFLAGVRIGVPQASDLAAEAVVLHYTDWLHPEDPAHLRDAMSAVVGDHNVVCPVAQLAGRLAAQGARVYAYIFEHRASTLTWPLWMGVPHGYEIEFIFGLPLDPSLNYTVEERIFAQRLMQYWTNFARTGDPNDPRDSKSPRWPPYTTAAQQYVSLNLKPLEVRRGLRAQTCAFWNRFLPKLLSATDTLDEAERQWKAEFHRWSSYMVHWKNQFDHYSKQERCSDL
Method: An enzyme solution was a homogenized solution of forebrain from male Wistar rat in 0.1M phosphate buffer (pH 8.0). Acetylthiocholine was used as a substrate for acetylcholinesterase (AChE) and the density of thionitrobenzoate (yellow) produced by the following reaction was measured with a spectrophotometer (OD₄₁₂). [drawing 27] Thiocholine + dithiobisnitrobenzoate → thionitrobenzoate Test compounds were dissolved in dimethylsulfoxide and diluted with 0.1M phosphate buffer (pH 8.0).

sigma receptor = assay: Sigma receptor binding test (3H-DTG, rat cerebral cortex membrane fractions); set-up: species or system Male Wistar rats; details: rat cerebral cortex membranes, 3H-DTG 2.5 nM, 25°C 60 minutes, Ki = IC50/[1 + (L/Kd)], Kd 26.3 nM; read-out: Sigma receptor binding assay ³H-DTG (Ki)
Method: Male Wistar rats weighing 250-300 g were decapitated and the brains were removed. Cerebral cortex was dissected on ice, and the brain tissues were homogenized in 20 volumes of Tris-HCl buffer (pH 8.0, 25°C) containing 320 mM sucrose. The homogenate was centrifuged at 1000 × g for 10 minutes. The obtained supernatant was centrifuged at 31,000 × g for 15 minutes and the pellets obtained were suspended in the same Tris-HCl buffer, followed by incubation at 37°C for 10 minutes. Centrifugation was repeated twice and the final pellets were suspended in 50 mM Tris-HCl buffer (pH 8.0, 25°C) and used as membrane fractions.
A binding inhibitory test was conducted by adding [³H]-1,3-di-o-tolylguanidine (³H-DTG, 39.4 Ci/mmol, New England Nuclear, final concentration 2.5 nM) and respective test compounds (5 different concentrations) to the membrane fractions (0.9 ml, 0.5-0.8 mg) and then the above-mentioned buffer to the final volume of 1 ml. The mixtures were incubated at 25°C for 60 minutes. The reaction mixture was suction-filtered through Whatman GF/B filters which had been treated previously with 0.1% polyethyleneimine and washed three times with 3 ml of 10 mM Tris-HCl buffer (pH 7.7, 25°C). Then, the β rays of the bound ³H-DTG on the filter were measured by a liquid scintillation counter.
IC₅₀ values were determined graphically and Ki values were calculated by the numerical equation Ki = IC₅₀/[1 + (L/Kd)] [formula] wherein L is a concentration of radioligand and Kd (26.3 nM) is a dissociation constant between tritiated ligand and the receptor.

[2] = biological target: acetylcholinesterase (AChE) derived from human (Homo sapiens, UniProt P22303); assay: biochemical
acetylcholinesterase (AChE) derived from human, sequence (P22303 32-614): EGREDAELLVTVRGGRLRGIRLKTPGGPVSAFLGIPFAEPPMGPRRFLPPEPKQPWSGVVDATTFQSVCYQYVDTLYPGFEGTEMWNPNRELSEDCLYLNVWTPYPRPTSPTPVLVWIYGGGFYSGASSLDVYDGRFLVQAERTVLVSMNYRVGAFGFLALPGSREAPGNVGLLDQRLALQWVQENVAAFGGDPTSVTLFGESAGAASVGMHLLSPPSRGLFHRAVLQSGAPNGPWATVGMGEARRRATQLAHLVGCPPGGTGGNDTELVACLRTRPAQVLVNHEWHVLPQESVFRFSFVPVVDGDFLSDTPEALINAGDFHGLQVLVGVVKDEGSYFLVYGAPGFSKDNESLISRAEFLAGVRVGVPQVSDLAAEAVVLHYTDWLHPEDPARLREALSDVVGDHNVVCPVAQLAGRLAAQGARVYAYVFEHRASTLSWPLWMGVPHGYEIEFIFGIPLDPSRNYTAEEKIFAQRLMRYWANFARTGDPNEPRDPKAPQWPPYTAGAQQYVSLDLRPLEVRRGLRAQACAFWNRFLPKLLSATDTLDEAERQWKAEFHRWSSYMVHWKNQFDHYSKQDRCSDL

[3] = biological target: butyrylcholinesterase (BChE) derived from human (Homo sapiens, UniProt P06276); assay: biochemical
butyrylcholinesterase (BChE) derived from human, sequence (P06276 29-602): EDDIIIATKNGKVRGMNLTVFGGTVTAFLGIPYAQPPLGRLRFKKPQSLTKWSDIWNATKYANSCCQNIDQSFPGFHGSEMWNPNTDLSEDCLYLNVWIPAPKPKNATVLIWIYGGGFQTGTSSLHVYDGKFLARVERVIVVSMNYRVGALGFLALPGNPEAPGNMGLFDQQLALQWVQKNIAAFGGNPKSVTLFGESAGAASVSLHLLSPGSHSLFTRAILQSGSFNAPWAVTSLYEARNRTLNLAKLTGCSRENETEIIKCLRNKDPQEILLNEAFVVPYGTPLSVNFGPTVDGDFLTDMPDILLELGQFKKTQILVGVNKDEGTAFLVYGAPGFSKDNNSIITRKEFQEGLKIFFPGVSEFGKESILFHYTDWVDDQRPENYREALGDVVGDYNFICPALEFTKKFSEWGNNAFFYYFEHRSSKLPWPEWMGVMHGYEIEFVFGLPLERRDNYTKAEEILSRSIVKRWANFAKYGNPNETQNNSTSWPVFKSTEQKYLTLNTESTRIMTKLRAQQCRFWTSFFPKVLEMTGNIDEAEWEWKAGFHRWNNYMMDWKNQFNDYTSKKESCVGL

[4] = Acute toxicity after oral administration; details: rat, in vivo; oral administration to rats; read-out: acute toxicity values (LD₅₀)
Method: The acute toxicity values (LD₅₀) of the compounds of the present invention 6 and 41 after oral administration to rats were not less than 50 mg/kg.

[5] = AChE derived from human, substrate acetylthiocholine, read-out: IC₅₀ AChE
[6] = IC50 for human BChE divided by IC50 for human AChE
[7] = BChE derived from human, substrate butyrylthiocholine, read-out: IC₅₀ BChE
[8] = homogenized forebrain of male Wistar rat, substrate acetylthiocholine, 0.1M phosphate buffer pH 8.0, read-out: Acetylcholinesterase inhibition IC₅₀

SMILES | Ki (sigma receptor) [nM] | IC50 [2, 5] [nM] | Selectivity IC₅₀ (BChE)/IC₅₀ (AChE) [2, 6] | further results
CNC(=O)Oc1cccc(CN2CCC(CCc3noc4c(OC)c(OC)ccc34)CC2)c1 [Example 23, 3-(2-(1-(3-(N-methylcarbamoyloxy)benzyl)-4-piperidyl)ethyl)-6,7-dimethoxy-1,2-benzisoxazole] |  |  |  | IC50 [1]: 0.34 nM
Cc1ccc2on(CCC3CCN(CC4CCCCC4)CC3)c(=O)c2c1 [Example 231, 2-(2-(1-Cyclohexylmethyl-4-piperidyl)ethyl)-5-methyl-1,2-benzisoxazol-3(2H)-one fumarate] | 0.42 |  |  | 
Cc1ccc2onc(OCCC3CCN(CC4CCCCC4)CC3)c2c1 [Example 160, 3-(2-(1-Cyclohexylmethyl-4-piperidyl)ethyloxy)-5-methyl-1,2-benzisoxazole fumarate] | 0.23 |  |  | 
O=C(Nc1ccc2c(=O)n(CCCC3CCN(Cc4ccccc4)CC3)oc2c1)c1ccccc1 [Example 198, 6-benzoylamino-2-(3-(1-benzyl-4-piperidyl)propyl)-1,2-benzisoxazol-3(2H)-one] |  | 0.94 | 3,800 | IC50 [3, 7]: 3600 nM
Cc1ccc2c(OCCC3CCN(CC4CCCCC4)CC3)noc2c1 [Example 164, 3-(2-(1-Cyclohexylmethyl-4-piperidyl)ethyloxy)-6-methyl-1,2-benzisoxazole fumarate] | 0.37 |  |  | 
O=C(Nc1ccc2c(=O)n(CCC3CCN(Cc4ccccc4)CC3)oc2c1)c1ccccc1 [Example 252, 6-Benzoylamino-2-(2-(1-benzyl-4-piperidyl)ethyl)-1,2-benzisoxazol-3(2H)-one] |  |  |  | IC50 [1, 8]: 0.73 nM
CN(C)C(=S)Oc1ccc2c(CCC3CCN(Cc4ccccc4)CC3)noc2c1 [Example 11] |  |  | >20,000 | IC50 [2]: 0.5 nM; IC50 [3]: > 10000 nM
Cc1ccc2c(=O)n(CCC3CCN(CC4CCCCC4)CC3)oc2c1 [Example 227, 2-(2-(1-Cyclohexylmethyl-4-piperidyl)ethyl)-6-methyl-1,2-benzisoxazol-3(2H)-one fumarate] | 0.55 |  |  | 
CC(=O)N(C)c1ccc2c(CCC3CCN(Cc4ccccc4)CC3)noc2c1 [Example 41, 3-(2-(1-Benzyl-4-piperidyl)ethyl)-6-(N-methylacetamino)-1,2-benzisoxazole] |  | 4.6 | 3,700 | IC50 [3, 7]: 17000 nM; LD50 [4]: ≥ 50 mg/kg
CC(=O)Nc1ccc2c(CCC3CCN(Cc4ccccc4)CC3)noc2c1 [Example 6, 6-acetylamino-3-(2-(1-benzyl-4-piperidyl)ethyl)-1,2-benzisoxazole] |  | 2.1 |  | Selectivity IC₅₀ (BChE)/IC₅₀ (AChE) [2]: 4,500; IC50 [3]: 9500 nM; LD50 [4]: ≥ 50 mg/kg
COc1ccc2c(CCC3CCN(Cc4ccccc4)CC3)noc2c1OC [Example 19, 3-(2-(1-benzyl-4-piperidyl)ethyl)-6,7-dimethoxy-1,2-benzisoxazole] |  | 1.8 | 4,200 | IC50 [1, 8]: 0.38 nM; IC50 [3, 7]: 7500 nM

— patent EP0602242A1, “BENZISOXAZOLE COMPOUND AND USE THEREOF” (priority 1991, dated 1993)
